According to paper PMC8227119, “Urinary Elimination of Ecdysterone and Its Metabolites Following a Single-Dose Administration in Humans” (Metabolites, 2021):
Where “and” joins values, the source holds several entries; their conditions need not be identical. Identical values can stand only once. Like-named read-outs stand apart in the source and are kept apart here.

Columns and labels:
[1] = Urinary excretion and pharmacokinetics after a single oral dose of 50 mg of pure ecdysterone (LC-MS/MS of urine); assay type: in vivo, human; details: for Subjects in whose post-administration urine the analyte was detected: 12 subjects; for Cmax / half-life / Tmax: both sexes; for Cmax / half-life: human, po, 50 mg; for Tmax: read-out: Tmax (time to maximum urinary concentration); for Cumulative urinary excretion percentage relative to dose, mean / Cumulative urinary excretion percentage relative to dose, range over subjects: percent of the 50 mg dose; for Cumulative urinary excretion percentage relative to dose, mean: mean value; for Cumulative Du (cumulative amount excreted in urine): mean ± SD of 12 subjects (14-deoxy-poststerone n = 10); for Kinetics of urinary elimination: log-linear rate of excretion versus middle-point time; for Difference of cumulative urinary excretion percentage between male and female (T-test): p ≤ 0.05, 5 males, 7 females
Procedure: The study was approved by the ethical committee of the German Sport University Cologne, and was carried out following the regulations of the Helsinki declaration. Twelve healthy subjects (7 females and 5 males) with a mean age (standard deviation [SD]) of 26 (3.1) y, weight of 74 (12.0) kg, and height of 174 (8.3) cm participated in the study. A single-dose of 50 mg of pure ecdysterone dissolved in 50 cl of alcoholic solution was administered to the subjects. All doses were administered at 9.00 a.m. in the morning. The urine samples were collected one day before (blank samples) and five days after the administration of ecdysterone. Sampling time (h) and urine volume (mL) were recorded. Aliquots of urine samples were stored frozen at −18 °C, until analysis.
Urine samples (200 µL) spiked with 10 µL of the ISTD ponasterone (working solution 10 µg/mL) and diluted to 1 mL with methanol:water (10:90, v/v). The tubes were vortex-mixed and then centrifuged at 9677 RCF for 8 min.
The analysis of ecdysterone and its metabolite in calibration and urine samples was performed by LC–MS/MS on an Agilent 1200 Infinity series, coupled to an Ultivo triple quadrupole tandem MS system, utilizing a Jet Stream electrospray ionization (ESI) source and an Ion Funnel (Agilent Technologies GmbH, Waldronn, Germany).
In this study, the excretion profile, the cumulative amount excreted in urine, and the half-life of ecdysterone and its metabolites, after a single-dose administration of 50 mg of pure ecdysterone were evaluated according to [45].
To obtain the excretion rates, Equation (1) was applied:(1) Erate,i=Ci x Vi/ (ti−ti−1)
For each urine sample, the calculated concentration (Ci, ng/mL) of ecdysterone, 14-deoxy-ecdysterone, and 14-deoxy-poststerone was adjusted as a function of the dilution factor applied (1:5) and of the volume of urine collected (Vi, mL), obtaining the corresponding amount of drug in urine (expressed in ng), which was divided by the interval between the time values of the sampling and the previous sampling (ti − ti−1).
The excretion profile curves of ecdysterone and its metabolites for each subject were then obtained by plotting the calculated rate of excretion values (ng/h) versus time (middle-point of sample collection, hours) or simply the calculated concentrations (ng/mL) versus time (sampling time, hours). The first collected interval started at 0 h after the oral administration of ecdysterone at 9 a.m.
For each sample, the amount of drug excreted in urine was calculated and added to the amount of drug recovered in the previous urine sample to obtain the cumulative urinary drug excretion, which was plotted in a graph versus the sampling time (hours).
The half-life using the elimination rate constant (k) was calculated by applying Equation (2):(2) t1/2=ln(2)/k
Two different methods were used to calculate the elimination rate constant (k). In the rate of excretion method, k was obtained from the slope of the elimination phase of the ln-transformed excretion curve (Figure 6).
In the sigma minus method, k was obtained from the slope of the elimination phase of the ln-transformed remaining drug to be excreted.

[2] = Stability of analytes in spiked urine QC samples (bench-top, long term, freeze-thaw); assay type: in vitro ADME, human; details: vs t = 0, mean n = 3
Procedure: The stability of ecdysterone and 14-deoxy-ecdysterone in urine was determined in triplicates, using the LQC and HQC samples, which were analyzed immediately and again after storage, as reported in Table 4. Freshly prepared QC samples (at t = 0) were used as baseline to assess the stability.
To evaluate the bench-top stability, LQC and HQC samples were left at room temperature for 4, 8, and 24 h, before analysis. Freeze and thaw stability was evaluated after three cycles for LQC and HQC. Long-term stability was evaluated analyzing the LQC and HQC samples, after storing them at −20 °C for two weeks. The results of the stability tests applied were calculated using the peak area ratio of the analytes to the ISTD, which were compared to the baseline (t = 0). Comparing the mean of the ratios after a specific storage condition to the mean of the ratio at t = 0. The results obtained were all within the ±15%.

[3] = single oral dose 50 mg ecdysterone
[4] = urine, human urine, single oral dose 50 mg ecdysterone, mean ± SD of 12 subjects (14-deoxy-poststerone n = 5), read-out: Cmax (maximum urinary concentration)
[5] = urine, human urine, single oral dose 50 mg ecdysterone, mean ± SD of 12 subjects (14-deoxy-poststerone n = 5), read-out: Half Life, Rate of Excretion method (converted)
[6] = urine, human urine, single oral dose 50 mg ecdysterone, mean ± SD of 12 subjects (14-deoxy-poststerone n = 5), read-out: Half Life, Sigma-Minus method (converted)
[7] = urine, human urine, single oral dose 50 mg ecdysterone, range over subjects, read-out: Maximum urinary concentration (Cmax), range over subjects
[8] = human urine, single oral dose 50 mg ecdysterone, mean ± SD of 12 subjects (14-deoxy-poststerone n = 5)
[9] = human urine, range over subjects
[10] = human urine, single oral dose 50 mg ecdysterone
[11] = human urine, single oral dose 50 mg ecdysterone, range over subjects
[12] = HQC, bench-top room temperature 4 h
[13] = HQC, bench-top room temperature 8 h
[14] = HQC, bench-top room temperature 24 h
[15] = HQC, long term 2 weeks at −20 °C
[16] = LQC, bench-top room temperature 4 h
[17] = LQC, bench-top room temperature 8 h
[18] = LQC, bench-top room temperature 24 h
[19] = LQC, long term 2 weeks at −20 °C

| Compound | Subjects in whose post-administration urine the analyte was detected [1, 3] | Cmax [1, 4] [µg/mL] | half-life [1, 5] [h] | half-life [1, 6] [h] | Cmax [1, 7] [µg/mL] | Tmax [1, 8] [h] | Cumulative urinary excretion percentage relative to dose, mean ([1]; human urine) [%] | Cumulative urinary excretion percentage relative to dose, range over subjects [1, 9] | Duration of detectability in urine [1, 10] | First detection in urine after administration (start of detection window) [1, 10] [h] | Remained detectable in urine until (end of detection window) [1, 10] [h] | Urinary half-life (approximate) [1, 10] | ERmax (maximum urinary rate of excretion) [1, 8] [mg/h] | Midpoint Timemax (maximum urinary middle-point time) [1, 8] [h] | Cumulative Du (cumulative amount excreted in urine) [1, 10] [mg] | Maximum excretion rate, range over subjects [1, 11] [mg/h] | Time of the urine with maximum concentration, range over subjects [1, 11] | Time of the urine with maximum excretion rate, range over subjects [1, 11] [h] | Kinetics of urinary elimination [1] | Difference of cumulative urinary excretion percentage between male and female (T-test) [1] | also measured |
| --- | --- | --- | --- | --- | --- | --- | --- | --- | --- | --- | --- | --- | --- | --- | --- | --- | --- | --- | --- | --- | --- |
| CC(C)(O)CC[C@@H](O)[C@](C)(O)[C@H]1CC[C@H]2C3=CC(=O)[C@@H]4C[C@@H](O)[C@@H](O)C[C@]4(C)[C@H]3CC[C@]12C [14-deoxy-ecdysterone, Alpha-14-deoxy-ecdysterone] | all 12 subjects | 1.4 ± 1.6 | 3.1 ± 1.3 | 2.2 ± 0.9 | 0.1 to 6 | 19.7 ± 8.9 | 2.3 | 0.4–6.1% | about 3 days | 2.95 | 75 | three | 0.1 ± 0.1 | 17.5 ± 7.0 | 1.1 ± 0.9 | 0.02 to 0.24 | 8.5 to 39.5 h and 8.5 to 39.50 h | 10.1 to 29.5 | first-order kinetics | No significant difference | half-life ([1]; urine, human urine, single oral dose 50 mg ecdysterone, read-out: Urinary half-life (approximate) (converted)): ~3 h; Time at which cumulative urinary excretion reaches a plateau ([1]; in 58.3% of subjects): 25 to 40 h; Time at which cumulative urinary excretion reaches a plateau ([1]; in the remaining 16.6% of subjects): 40 to 62 h; Stability% [2, 12]: 101%; Stability% [2, 13]: 100%; Stability% [2, 14]: 101%; Stability% ([2]; HQC, freeze-thaw 3 cycles): 103%; Stability% [2, 15]: 87%; Stability% [2, 16]: 103%; Stability% [2, 17]: 101%; Stability% [2, 18]: 97%; Stability% ([2]; LQC, freeze-thaw 3 cycles): 110%; Stability% [2, 19]: 91% |
| CC(=O)[C@H]1CC[C@H]2C3=CC(=O)[C@@H]4C[C@@H](O)[C@@H](O)C[C@]4(C)[C@H]3CC[C@]12C [14-deoxy-poststerone, alpha-14-deoxy-poststerone] | 10 out of 12 | 0.8 ± 0.7 | 9.7 ± 9.5 | 4.4 ± 1 | 0.1 to 1.5 | 30.1 ± 7.2 | 1.5 | 0.01–4.9% | about 4 days | 8.50 | 97 |  | 0.1 ± 0.1 | 27.8 ± 3.7 | 0.7 ± 1.1 |  | 23.3 to 41.3 h |  |  | significant difference |  |
| CC(C)(O)CC[C@@H](O)[C@](C)(O)[C@H]1CC[C@@]2(O)C3=CC(=O)[C@@H]4C[C@@H](O)[C@@H](O)C[C@]4(C)[C@H]3CC[C@]12C [Ecdysterone, 2β,3β,14α,20β,22R,25-hexahydroxy-5β-cholest-7-en-6-one] | all subjects |  |  |  |  |  | 18 | 2.8–47.2% | more than 2 days |  | 58 | three | 1.7 ± 1.4 | 2.1 ± 1.3 | 8.8 ± 6.6 | 0.1 to 4.8 | 2.8 to 8.5 h | 0.4 to 4.4 | first-order kinetics | No significant difference | Cmax ([1]; in vivo, human urine, single oral dose 50 mg ecdysterone, mean ± SD of 12 subjects (14-deoxy-poststerone n = 5), read-out: Cmax (maximum urinary concentration)): 12.1 ± 9.2 µg/mL; half-life ([1]; in vivo, human urine, single oral dose 50 mg ecdysterone, mean ± SD of 12 subjects (14-deoxy-poststerone n = 5), read-out: Half Life, Rate of Excretion method (converted)): 3.4 ± 1 h; half-life ([1]; in vivo, human urine, single oral dose 50 mg ecdysterone, mean ± SD of 12 subjects (14-deoxy-poststerone n = 5), read-out: Half Life, Sigma-Minus method (converted)): 3 ± 1 h; Cmax ([1]; in vivo, human urine, single oral dose 50 mg ecdysterone, range over subjects, read-out: Maximum urinary concentration (Cmax), range over subjects): 4.4 to 30 µg/mL; half-life ([1]; in vivo, human urine, single oral dose 50 mg ecdysterone, read-out: Urinary half-life (approximate) (converted)): ~3 h; Tmax ([1]; in vivo, human urine, single oral dose 50 mg ecdysterone, mean ± SD of 12 subjects (14-deoxy-poststerone n = 5)): 4.6 ± 1.8 h; Time at which cumulative urinary excretion reaches a plateau ([1]; human urine, post-dosage): 12 h; First detection in urine after administration [1, 10]: 45 min; Kinetics of urinary elimination ([1]; listed as ecdysterone): first-order; Stability% [2, 12]: 101%; Stability% [2, 13]: 98%; Stability% [2, 14]: 100%; Stability% ([2]; HQC, freeze-thaw 3 cycles): 103%; Stability% [2, 15]: 87%; Stability% [2, 16]: 100%; Stability% [2, 17]: 104%; Stability% [2, 18]: 100%; Stability% ([2]; LQC, freeze-thaw 3 cycles): 111%; Stability% [2, 19]: 94% |
